Data as given in patent publication US10968178B2, “IP6K inhibitors” (TAKEDA PHARMACEUTICAL COMPANY LIMITED, priority 2017, dated 2021).

Assays:
Assay type in all cases: biochemical
[1] = target: T1, human IP6K2 (Homo sapiens, UniProt Q9UHH9); assay: IP6K enzyme inhibitory assay (ADP-Glo Kinase Assay), human IP6K2; details: compound concentration 0.1 μM; read-out: ADP-Glo method inhibitory rate (%) human IP6K2
T1 construct: human IP6K2 (1-426) gene; GST; made in house; host or cells: Sf-9 insect cells
T1 sequence (Q9UHH9 1-426): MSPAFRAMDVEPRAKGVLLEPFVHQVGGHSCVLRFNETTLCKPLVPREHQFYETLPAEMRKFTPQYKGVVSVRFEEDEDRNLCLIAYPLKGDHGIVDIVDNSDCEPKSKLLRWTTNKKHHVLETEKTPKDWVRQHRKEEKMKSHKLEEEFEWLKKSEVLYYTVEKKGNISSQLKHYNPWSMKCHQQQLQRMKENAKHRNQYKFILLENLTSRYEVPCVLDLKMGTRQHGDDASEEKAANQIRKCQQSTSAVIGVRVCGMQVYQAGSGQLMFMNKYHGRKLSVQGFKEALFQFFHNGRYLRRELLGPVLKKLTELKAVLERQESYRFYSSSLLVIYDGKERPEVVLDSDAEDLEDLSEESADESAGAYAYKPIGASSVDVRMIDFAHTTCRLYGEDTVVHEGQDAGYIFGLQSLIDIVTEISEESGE
In short: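 The inhibitory activity against human IP6K2 was measured with Promega's ADP-Glo Kinase Assay in 384 well plates. Test compound, diluted in assay buffer (20 mM HEPES (pH 7.5), 6 mM MgCl2, 0.01% Tween-20, 1 mM DTT), was added at 2 μL. Adding 2 μL of diluted enzyme started the reaction, which ran for 60 min at room temperature. Next, 3 μL ADP-Glo solution (30 min) and 6 μL Kinase-Detection solution (60 min) were added, and luminescence was read on an Envision plate reader.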

[2] = target: T2, human IP6K1 (Homo sapiens, UniProt Q92551); assay: IP6K enzyme inhibitory assay (ADP-Glo Kinase Assay), human IP6K1; details: compound concentration 0.1 μM; read-out: ADP-Glo method inhibitory rate (%) human IP6K1
T2 construct: human IP6K1 (1-441) gene; GST; made in house; host or cells: Sf-9 insect cells
In short: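 Inhibition of human IP6K1 was determined with Promega's ADP-Glo Kinase Assay in 384 well plates. Test compound diluted in assay buffer (20 mM HEPES (pH 7.5), 6 mM MgCl2, 0.01% Tween-20, 1 mM DTT) was added at 2 μL, then 2 μL of enzyme started the reaction for 60 min at room temperature. Next came 3 μL ADP-Glo solution for 30 min and 6 μL Kinase-Detection solution for 60 min. Luminescence was read on an Envision plate reader.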

[3] = target: T3, human IP6K3 (Homo sapiens, UniProt Q96PC2); assay: IP6K enzyme inhibitory assay (ADP-Glo Kinase Assay), human IP6K3; details: compound concentration 0.1 μM; read-out: ADP-Glo method inhibitory rate (%) human IP6K3
T3 construct: human IP6K3 (1-410) gene; made in house; host or cells: BL21 (DE3) Escherichia coli
T3 sequence (Q96PC2 1-410): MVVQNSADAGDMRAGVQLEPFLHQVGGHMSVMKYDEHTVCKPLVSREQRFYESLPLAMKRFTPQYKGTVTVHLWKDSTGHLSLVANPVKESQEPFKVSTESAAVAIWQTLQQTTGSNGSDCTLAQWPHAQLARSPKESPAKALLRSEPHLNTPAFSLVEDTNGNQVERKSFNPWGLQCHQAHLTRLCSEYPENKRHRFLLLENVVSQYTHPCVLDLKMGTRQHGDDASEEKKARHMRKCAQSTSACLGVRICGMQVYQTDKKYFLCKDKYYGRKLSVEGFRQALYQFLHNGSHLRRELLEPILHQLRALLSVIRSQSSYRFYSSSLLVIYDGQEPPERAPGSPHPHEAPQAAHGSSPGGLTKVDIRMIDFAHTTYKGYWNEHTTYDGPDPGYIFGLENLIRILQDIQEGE
In short: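 Recombinant human IP6K (IP6K3 residues 1-410, E. coli, Ni-NTA purified) incubated with compound in 20 mM HEPES pH 7.5, 6 mM MgCl2, 0.01% Tween-20, 1 mM DTT for 60 min at room temperature. ADP formed read as luminescence by ADP-Glo.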

T2 sequence (Q92551 whole entry): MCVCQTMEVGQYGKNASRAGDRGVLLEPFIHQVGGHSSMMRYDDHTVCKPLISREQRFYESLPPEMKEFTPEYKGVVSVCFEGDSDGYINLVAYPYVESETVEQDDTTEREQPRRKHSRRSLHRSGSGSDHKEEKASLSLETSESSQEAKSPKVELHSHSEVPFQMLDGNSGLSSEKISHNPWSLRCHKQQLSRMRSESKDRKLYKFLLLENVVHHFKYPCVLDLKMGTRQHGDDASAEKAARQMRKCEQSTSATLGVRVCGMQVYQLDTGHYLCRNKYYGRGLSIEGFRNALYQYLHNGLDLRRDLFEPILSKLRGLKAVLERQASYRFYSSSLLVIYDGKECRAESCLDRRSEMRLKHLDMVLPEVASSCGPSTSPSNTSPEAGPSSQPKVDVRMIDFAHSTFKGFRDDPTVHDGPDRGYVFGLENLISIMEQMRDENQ

| inhibition at 0.1 µM [1] [%] | inhibition at 0.1 µM [2] [%] | inhibition at 0.1 µM [3] [%] | SMILES |
| --- | --- | --- | --- |
| 96 | 84 | 96 | N#Cc1cc(Cl)cnc1O[C@H]1CC[C@]2(CC1)C(=O)Nc1ccc(C(=O)O)nc12 [Example 110, (1s,4s)-4-((5-chloro-3-cyanopyridin-2-yl)oxy)-2′-oxo-1′,2′-dihydrospiro[cyclohexane-1,3′-pyrrolo[3,2-b]pyridine]-5′-carboxylic acid] |
| 100 | 99 | 101 | Cc1ccc(O[C@H]2CC[C@@]3(CC2)C(=O)Nc2ccc(C(=O)O)cc23)c(F)c1 [Example 54, (1r,4r)-4-(2-fluoro-4-methylphenoxy)-2′-oxo-1′,2′-dihydrospiro[cyclohexane-1,3′-indole]-5′-carboxylic acid] |
| 89 | 86 | 94 | O=C(O)c1ccc2c(c1)[C@]1(CC[C@H](Oc3cc(F)cnc3F)CC1)C(=O)N2 [Example 5, (1s,4s)-4-((2,5-difluoropyridin-3-yl)oxy)-2′-oxo-1′,2′-dihydrospiro[cyclohexane-1,3′-indole]-5′-carboxylic acid] |
| 100 | 97 | 102 | COc1cc(Cl)ccc1O[C@H]1CC[C@]2(CC1)C(=O)Nc1ccc(C(=O)O)cc12 [Example 83, (1s,4s)-4-(4-chloro-2-methoxyphenoxy)-2′-oxo-1′,2′-dihydrospiro[cyclohexane-1,3′-indole]-5′-carboxylic acid] |
| 64 | 51 | 83 | O=C(O)c1ccc2c(n1)[C@]1(CC[C@@H](Oc3ncc(Cl)cc3C(F)(F)F)CC1)C(=O)N2 [Example 99, (1r,4r)-4-((5-chloro-3-(trifluoromethyl)pyridin-2-yl)oxy)-2′-oxo-1′,2′-dihydrospiro[cyclohexane-1,3′-pyrrolo[3,2-b]pyridine]-5′-carboxylic acid] |
| 100 | 99 | 96 | Cc1ccc(O[C@H]2CC[C@@]3(CC2)C(=O)Nc2ccc(C(=O)O)cc23)cc1F [Example 52, (1r,4r)-4-(3-fluoro-4-methylphenoxy)-2′-oxo-1′,2′-dihydrospiro[cyclohexane-1,3′-indole]-5′-carboxylic acid] |
| 100 | 96 | 100 | Cc1cc(Cl)cnc1O[C@H]1CC[C@]2(CC1)C(=O)Nc1ccc(C(=O)O)nc12 [Example 81, (1s,4s)-4-((5-chloro-3-methylpyridin-2-yl)oxy)-2′-oxo-1′,2′-dihydrospiro[cyclohexane-1,3′-pyrrolo[3,2-b]pyridine]-5′-carboxylic acid] |
| 95 | 100 | 100 | N#Cc1ccc(O[C@H]2CC[C@@]3(CC2)C(=O)Nc2ccc(C(=O)O)cc23)cc1F [Example 61, (1r,4r)-4-(4-cyano-3-fluorophenoxy)-2′-oxo-1′,2′-dihydrospiro[cyclohexane-1,3′-indole]-5′-carboxylic acid] |
| 91 | 92 | 93 | Cc1cc(Cl)cnc1O[C@H]1CC[C@@]2(CC1)C(=O)Nc1ccc(C(=O)O)nc12 [Example 17, (1r,4r)-4-((5-chloro-3-methylpyridin-2-yl)oxy)-2′-oxo-1′,2′-dihydrospiro[cyclohexane-1,3′-pyrrolo[3,2-b]pyridine]-5′-carboxylic acid] |
| 98 | 95 | 96 | O=C(O)c1ccc2c(c1)[C@]1(CC[C@@H](Oc3ncc(Cl)cc3C(F)(F)F)CC1)C(=O)N2 [Example 28, (1r,4r)-4-((5-chloro-3-(trifluoromethyl)pyridin-2-yl)oxy)-2′-oxo-1′,2′-dihydrospiro[cyclohexane-1,3′-indole]-5′-carboxylic acid] |
| 79 | 79 | 85 | O=C(O)c1ccc2c(c1)[C@]1(CC[C@@H](Oc3ccccc3)CC1)C(=O)N2 [Example 113, (1r,4r)-2′-oxo-4-phenoxy-1′,2′-dihydrospiro[cyclohexane-1,3′-indole]-5′-carboxylic acid] |
| 83 | 88 | 94 | N#Cc1ccccc1O[C@H]1CC[C@@]2(CC1)C(=O)Nc1ccc(C(=O)O)cc12 [Example 44, (1r,4r)-4-(2-cyanophenoxy)-2′-oxo-1′,2′-dihydrospiro[cyclohexane-1,3′-indole]-5′-carboxylic acid] |
| 82 | 62 | 89 | Cn1nc(O[C@H]2CC[C@@]3(CC2)C(=O)Nc2ccc(C(=O)O)cc23)cc1C(F)(F)F [Example 80, (1r,4r)-4-((1-methyl-5-(trifluoromethyl)-1H-pyrazol-3-yl)oxy)-2′-oxo-1′,2′-dihydrospiro[cyclohexane-1,3′-indole]-5′-carboxylic acid] |
| 97 | 96 | 95 | Cc1c(Cl)cnc(O[C@H]2CC[C@]3(CC2)C(=O)Nc2ccc(C(=O)O)nc23)c1C#N [Example 106, (1s,4s)-4-((5-chloro-3-cyano-4-methylpyridin-2-yl)oxy)-2′-oxo-1′,2′-dihydrospiro[cyclohexane-1,3′-pyrrolo[3,2-b]pyridine]-5′-carboxylic acid] |
| 101 | 101 | 100 | O=C(O)c1ccc2c(c1)[C@]1(CC[C@@H](Oc3ncc(C4CC4)cc3C(F)(F)F)CC1)C(=O)N2 [Example 31, (1r,4r)-4-((5-cyclopropyl-3-(trifluoromethyl)pyridin-2-yl)oxy)-2′-oxo-1′,2′-dihydrospiro[cyclohexane-1,3′-indole]-5′-carboxylic acid] |
| 98 | 97 | 99 | Cc1ccc(O[C@H]2CC[C@@]3(CC2)C(=O)Nc2ccc(C(=O)O)cc23)cc1C [Example 46, (1r,4r)-4-(3,4-dimethylphenoxy)-2′-oxo-1′,2′-dihydrospiro[cyclohexane-1,3′-indole]-5′-carboxylic acid] |
| 99 | 91 | 98 | O=C(O)c1ccc2c(n1)[C@]1(CC[C@H](Oc3ncc(C4CC4)cc3Cl)CC1)C(=O)N2 [Example 111, (1s,4s)-4-((3-chloro-5-cyclopropylpyridin-2-yl)oxy)-2′-oxo-1′,2′-dihydrospiro[cyclohexane-1,3′-pyrrolo[3,2-b]pyridine]-5′-carboxylic acid] |
| 97 | 99 | 97 | N#Cc1ccc(O[C@H]2CC[C@@]3(CC2)C(=O)Nc2ccc(C(=O)O)cc23)c(Cl)c1 [Example 72, (1r,4r)-4-(2-chloro-4-cyanophenoxy)-2′-oxo-1′,2′-dihydrospiro[cyclohexane-1,3′-indole]-5′-carboxylic acid] |
| 96 | 99 | 99 | O=C(O)c1ccc2c(c1)[C@]1(CC[C@@H](Oc3ncc(C(F)(F)F)cc3Cl)CC1)C(=O)N2 [Example 29, (1r,4r)-4-((3-chloro-5-(trifluoromethyl)pyridin-2-yl)oxy)-2′-oxo-1′,2′-dihydrospiro[cyclohexane-1,3′-indole]-5′-carboxylic acid] |
